Experimental data as given in paper PMC9446078 (Frontiers in Endocrinology, 2022).
Counter-ions that a name gives are not always drawn. Like-named read-outs stand apart in the source and are kept apart here.

Tests used:
[1] = Toxicokinetics in miniature swine; assay type: in vivo, Hanford miniature swine; conditions: for Cmax: read-out: Cmax; for Tmax: read-out: Tmax
Procedure: (§1) A total of 40 Hanford miniature swine (20 male and 20 female) divided into four treatment groups were used for this study. A 12-week topical application of Galnobax 20% was carried out in the miniature swine wound healing model with twice-daily dosing. Six wounds (10 cm^2 each) of partial thickness were created on the dorsal region of all animals. Four wounds of each animal received twice-daily topical doses of either the vehicle or Galnobax gel, and the remaining two sites served as untreated comparative control wounds. Each group has four male and female miniature swine for the assessments and one each for the recovery period as given in Table 1 . Safety parameters in terms of ECG, clinical pathology, wound site evaluation, and toxicokinetics were performed during the study.

[2] = test system: red blood cells; experiment: Inhibition of sorbitol formation in erythrocytes; assay type: cell-based, human; conditions: at IC50 concentration; compared with glucose-induced sorbitol levels (30 mM glucose, 3 h)
Procedure: The method in brief is discussed below. Five milliliters of blood sample was obtained from a healthy volunteer on overnight fasting in heparinized tubes. Red blood cells were separated by centrifugation and washed three times with isotonic saline at 4°C. The washed RBC were suspended in Kreb’s ringer bicarbonate buffer, pH 7.4 (preequilibrated with 5% CO2), and incubated at 37°C in the presence of 5% CO2 for 3 h under normal (3.0 mM) and high glucose (30 mM) conditions. […] At the end of the incubation period, RBC was homogenized in nine volumes of 0.8 M perchloric acid. The homogenate was centrifuged at 5,000 × g at 4°C for 10 min, and the pH of the supernatant was adjusted to 3.5 with 0.5 M potassium carbonate. The sorbitol content of the supernatant was measured by fluorometric method as described previously ([14]) using a spectrofluorometer (Jasco-FP-6500).

[3] = test system: Hanford miniature swine; experiment: 12-week dermal toxicity study in miniature swine; assay type: in vivo
Procedure: as §1

[4] = test system: bovine serum albumin; experiment: Inhibition of advanced glycation end products (fluorometric, glucose + bovine serum albumin); assay type: biochemical; conditions: control mean 7.5
Procedure: Fluorescence was measured at the excitation wavelength of 360 nm and the emission wavelength of 440 nm. Afterwards, the samples were cooled to room temperature.

[5] = MTT cytotoxicity in HaCaT; assay type: cell-based, human; conditions: human, HaCaT cells, 48 h, read-out: % Cytotoxicity w.r.t. untreated cells
Procedure: (§2) 1. HaCaT, HFF-1 and Ea.hy926 cells were counted and plated in 96 well plates at the density corresponding to 5 X 10^3 cells/well/180 μl of cell growth medium.
(§3) 2. The above cells were then incubated overnight under growth conditions of 37°C, 95 % Humidity, 5 % CO2.so as to allow the cell recovery and exponential growth.
(§4) 3. Following overnight incubation, the above cells were serum starved in DMEM (containing 25 mM glucose) supplemented with […] for 24 h.
(§5) 5. The Ea.hy926 cells were then incubated for 24 h and HaCaT and HFF-1 cells were incubated for 48 h in CO2 incubator at 37 °C, 5 % CO2 and 95 % humidity.
(§6) 6. Following incubation, the plates were taken out and 20 μl of 5 mg/ml of MTT 3-(4,5-dimethythiazol-2-yl)-2,5-diphenyl tetrazolium bromide solution was added to all the wells followed by additional incubation for 3 h at 37 °C. The supernatant was aspirated and 150 μl of DMSO was added to each well to dissolve formazan crystals. The absorbance of each well was then read at 540 nm using Synergy HT micro plate reader.
(§7) 7. The percentage cytotoxicity at each tested concentration was calculated using the following formula:
(§8) % Cytotoxicity = (1-X/R)*100

[6] = test system: HaCaT cells; experiment: MTT cytotoxicity in HaCaT; assay type: cell-based, human; conditions: all tested concentrations (0.01 to 1000 μM), <30% = non-cytotoxic
Procedure: as §2, §3, §4, §5, §6, §7, §8

[7] = MTT cytotoxicity in Ea.hy926; assay type: cell-based, human; conditions: human, Ea.hy926 cells, Ea.hy926, 24 h, read-out: % Cytotoxicity w.r.t. untreated cells
Procedure: as §2, §3, §4, §5, §6, §7, §8

[8] = test system: Ea.hy926 cells; experiment: MTT cytotoxicity in Ea.hy926; assay type: cell-based, human; conditions: Ea.hy926, all tested concentrations (0.01 to 1000 μM); <30% = non-cytotoxic
Procedure: as §2, §3, §4, §5, §6, §7, §8

[9] = biological target: T1, human recombinant aldose reductase (Homo sapiens, UniProt P15121); experiment: Aldose reductase inhibition assay (spectrophotometric, glyceraldehyde substrate); assay type: biochemical; conditions: recombinant enzyme, DL-glyceraldehyde substrate, pH 6.2, 37°C
T1 construct: made in house; host or cells: Escherichia coli
Procedure: Recombinant human aldose reductase was purified from bacterial cultures. Enzyme from expression cultures was extracted and purified essentially as described previously ([12]) with the exception that affinity chromatography over AffiGel Blue (Bio-Rad) was used as a final purification step.
AR activity was assayed according to the method described in the literature ([13]). The assay mixture in 1 ml contained 50 μM potassium phosphate buffer, pH 6.2, 0.4 mM lithium sulfate, 5 μM 2-mercapto ethanol, 10 μM DL-glyceraldehyde, 0.1 μM NADPH, and enzyme preparation (recombinant enzyme). Appropriate blanks were employed for corrections. The assay mixture was incubated at 37°C and initiated by the addition of NADPH at 37°C. The change in absorbance at 340 nm due to NADPH oxidation was followed in a Cary Bio 100 spectrophotometer.
The percent of inhibition with a test compound was calculated considering that the AR activity in the absence of an inhibitor was 100%. The concentration of the test sample giving 50% inhibition (IC50) was then estimated.

[10] = design: method as in PMID 2879662, PMID 7957532, PMID 6135794; conditions: approved (intravenous) dose; cited from earlier work
[11] = both sexes, Hanford, pig, blood, topical or ocular, 400 mg, Day 1, Group 2 swine, topical 400 mg Galnobax Gel, mean
[12] = both sexes, Hanford, pig, blood, topical or ocular, 400 mg, Week 12, Group 2 swine, topical 400 mg Galnobax Gel BID, mean

Q: Which concentration at 8 hr ([1]; both sexes, Hanford, pig (miniature swine), blood, after first topical dose of Galnobax Gel 400 mg, below the quantitation limit, read-out: blood concentration by the second daily dose (8 hr)) does the source give for `COC(=O)CCc1ccc(OCC(O)CNC(C)C)cc1` (centres unmarked) [Esmolol hydrochloride] here?
A: < 5 ng/mL

Q: What about the AUC(0-t) [1, 11] of the same compound?
A: 18.7 ng·h/mL

Q: And the Cmax [1, 11]?
A: 30.3 ng/mL

Q: And the Tmax [1, 11]?
A: 18 min

Q: And the AUC(0-t) [1, 12]?
A: 17.5 ng·h/mL

Q: What about the AUC from 0 to 8 h ([1]; both sexes, Hanford, pig, blood, topical or ocular, 400 mg, Week 12, Group 2 swine, topical 400 mg Galnobax Gel BID, mean, read-out: AUC0-8) of the same compound?
A: 35.4 ng·h/mL

Q: What about the Cmax [1, 12] of the same compound?
A: 140 ng/mL

Q: And the Tmax [1, 12]?
A: 22.8 min

Q: What about the “accumulation after 12 weeks of twice-daily topical application” value ([1]; miniature swine, topical Galnobax) of the same compound?
A: no apparent accumulation

Q: And the “inhibition of sorbitol formation in red blood cells” value [2]?
A: 59%

Q: And the “local reactions at the injection sites” value ([3]; subcutaneously administered esmolol (30 mg/kg once or twice daily) plus topical Galnobax)?
A: moderate to severe local reactions

Q: And the ovary weights ([3]; subcutaneously administered esmolol plus topical Galnobax, no histopathologic changes)?
A: reduction in absolute and relative ovary weights

Q: And the “Fluorescence measurement, mean” value ([4]; 500 µM)?
A: 5

Q: What about the “Fluorescence measurement, mean” value ([4]; 1 mM) of the same compound?
A: 2.6

Q: What about the “Fluorescence measurement, mean” value ([4]; 1 mM, listed as esmolol) of the same compound?
A: 2.6 ± 1.7

Q: What about the cytotoxicity at 48 h, 0.01 µM ([5]; 0.01 μM) of the same compound?
A: -19.2%

Q: And the cytotoxicity at 48 h, 0.1 µM ([5]; 0.1 μM)?
A: -8.02%

Q: And the cytotoxicity at 48 h, 1 µM ([5]; 1 μM)?
A: -6.93%

Q: And the cytotoxicity at 48 h, 10 µM ([5]; 10 μM)?
A: -14.8%

Q: And the cytotoxicity at 48 h, 50 µM ([5]; 50 μM)?
A: -18.1%

Q: And the cytotoxicity at 48 h, 100 µM ([5]; 100 μM)?
A: -18.5%

Q: And the cytotoxicity at 48 h, 500 µM ([5]; 500 μM)?
A: 16.2%

Q: And the cytotoxicity at 48 h, 1000 µM ([5]; 1000 μM)?
A: 18.3%

Q: And the “cytotoxicity” value [6]?
A: non-cytotoxic

Q: What about the cytotoxicity at 24 h, 0.01 µM ([7]; 0.01 μM) of the same compound?
A: 5.84%

Q: And the cytotoxicity at 24 h, 0.1 µM ([7]; 0.1 μM)?
A: 1.73%

Q: And the cytotoxicity at 24 h, 1 µM ([7]; 1 μM)?
A: 11.4%

Q: And the cytotoxicity at 24 h, 10 µM ([7]; 10 μM)?
A: 13.8%

Q: What about the cytotoxicity at 24 h, 50 µM ([7]; 50 μM) of the same compound?
A: 3.85%

Q: And the cytotoxicity at 24 h, 100 µM ([7]; 100 μM)?
A: 2.79%

Q: What about the cytotoxicity at 24 h, 500 µM ([7]; 500 μM) of the same compound?
A: 17.5%

Q: And the cytotoxicity at 24 h, 1000 µM ([7]; 1000 μM)?
A: 12.7%

Q: What about the “cytotoxicity” value [8] of the same compound?
A: non-cytotoxic

Q: And the IC50 [9]?
A: 150 µM

Q: And the “Cmax of the approved human dose” value [10]?
A: 868–1,470 ng/ml
